For test [1], the target named is high affinity nicotinic receptors. The test is described as follows: Inhibition of L-[3H]nicotine binding to mouse brain membrane preparations. The arrangement: species or system mouse (DBA strain). The conditions noted are these: mouse brain membranes, 2 hr at 4° C., Ki calculated from IC50 by Cheng method. As for the experimental part: Mice (DBA strain) were maintained on a 12 hour light/dark cycle and were allowed free access to water and food supplied by Wayne Lab Blox, Madison, WI. Animals used in the present studies were 60 to 90 days of age and weighed 20 to 25 g. Brain membrane preparations were obtained from pooled brain tissue of both males and females.
Mice were killed by cervical dislocation. Brains were removed and placed on an ice-cold platform. The cerebellum was removed and the remaining tissue was placed in 10 volumes (weight:volume) of ice-cold buffer (Krebs-RingersHEPES:NaCl, 118 mM; KCl, 4.8 mM; CaCl2, 2.5 mM; MgSO4, 1.2 mM; HEPES, 20 mM; pH to 7.5 with NaOH) and homogenized with a glass-Teflon tissue grinder. The resulting homogenate was centrifuged at 18000×g for 20 min. and the resulting pellet was resuspended in 20 volumes of water. After 60 min. incubation at 4.C, a new pellet was collected by centrifugation at 18000×g for 20 min. After resuspension in 10 volumes of buffer, a new final pellet was again collected by centrifugation at 18000×g for 20 min. Prior to each centrifugation step, the suspension was incubated at 37° C. for 5 min. to promote hydrolysis of endogenous acetylcholine. The final pellet was overlayered with buffer and stored at -70° C. On the day of the assay, that pellet was thawed, resuspended in buffer and centrifuged at 18000×g for 20 min. The resulting pellet obtained was resuspended in buffer to a final concentration of approximately 5 mg protein/ml. Protein was determined by the method of Lowry, et al., J. Biol. Chem., Vol. 193, pp. 265-275 (1951), using bovine serum albumin as the standard.
The binding of L-[^3 H]nicotine was measured using a modification of the method of Romano, et al., Science, Vol. 210, pp. 647-650 (1980) as described previously by Marks, et al., Mol. Pharmacol., Vol. 30, pp. 427-436 (1986). The binding of L-[^3 H]nicotine was measured using a 2 hr. incubation at 4° C. Incubations contained about 500 μg of protein and were conducted in 12 mm×75 mm polypropylene test tubes in a final incubation volume of 250 μl. The incubation buffer was Krebs-Ringers HEPES containing 200 mM TRIS buffer, pH 7.5. The binding reaction was terminated by filtration of the protein containing bound ligand onto glass fiber filters (Micro Filtration Systems) that had been soaked in buffer containing 0.5 percent polyethyleneimine. Filtration vacuum was -50 to -100 torr. Each filter was washed five times with 3 ml of ice-cold buffer. The filtration apparatus was cooled to 2° C. before use and was kept cold through the filtration process. Nonspecific binding was determined by inclusion of 10 μM nonradioactive nicotine in the incubations. The inhibition of L-[^3 H]nicotine binding by test compounds was determined by including one of eight different concentrations of the test compound in the incubation. Inhibition profiles were measured using 10 nM L-[^3 H]nicotine and IC50 values were estimated as the concentration of compound that inhibited 50 percent of specific L-[^3 H]nicotine binding. Inhibition constants (Ki values) were calculated from the IC50 values using the method of Cheng, et al., Biochem. Pharmacol., Vol. 22, pp. 3099-3108 (1973). […] The L-[^3 H]nicotine used in all experiments was purified chromatographically by the method of Romm, et al., Life Sci., Vol. 46, pp. 935-943 (1990).

The subject of test [2] is synaptosomes from the striatal area of rat brain. The test is described as follows: [3H]Dopamine release from rat striatal synaptosomes (continuous perfusion). The conditions noted are these: 0.2 ml of a 20 μM solution of ligand, relative to equal concentration of S(-) nicotine, read-out: Dopamine Release (percent release relative to S(-) nicotine). It is filed as cell-based, rat (Sprague-Dawley). As for the experimental part:
Dopamine release was measured by preparing synaptosomes from the striatal area of rat brain obtained from Sprague-Dawley rats generally according to the procedures set forth by Nagy, et al., J. Neurochem., Vol. 43, pp. 1114-1123 (1984). Striata from 4 rats were homogenized in 2 ml of 0.32M sucrose buffered with 5 mM HEPES (pH 7.5), using a glass-teflon tissue grinder. The homogenate was diluted to 5 ml with additional homogenization solution and centrifuged at 1000×g for 10 min. This procedure was repeated on the new pellet
the resulting supernatant was centrifuged at 12,000×g for 20 min. A 3 layer discontinuous Percoll gradient consisting of 16 percent, 10 percent and 7.5 percent Percoll in HEPES-buffered sucrose was made with the final pellet dispersed in the top layer. After centrifugation at 15,000×g for 20 min., the synaptosomes were recovered above the 16 percent layer with a pasteur pipette, diluted with 8 ml of perfusion buffer (128 mM NaCl, 2.4 mM KCl, 3.2 mM CaCl2, 1.2 mM KH2 PO4, 1.2 mM MgSO4, 25 mM HEPES pH 7.4, 10 mM dextrose, 1 mM ascorbate, 0.01 mM pargyline), and centrifuged at 15,000×g for 20 min. The new pellet was collected and re-suspended in perfusion buffer. The synaptosome suspension was incubated for 10 min. at 37° C. Then [^3 H]dopamine (Amersham, 40-60 Ci/mmol) was added to the suspension to give a final concentration of 0.1 μM in suspension, and the suspension was incubated for another 5 min. Using this method, 30 to 90 percent of the dopamine was taken up into the synaptosomes, as determined by scintillation counting following filtration through glass fiber filters soaked with 0.5 percent polyethyleneimine. A continuous perfusion system was used to monitor release following exposure to each ligand (i.e., 5-fluoronicotine, 5-bromonicotine, 4^1 -methylnicotine, 5'-methylnicotine, and 5-methylnicotine). Synaptosomes were loaded onto glass fiber filters (Gelman type A/E). Perfusion buffer was dripped onto the filters (0.2-0.3 ml/min.) and pulled through the filters with a peristaltic pump. Synaptosomes were washed with perfusion buffer for a minimum of 20 min. before addition of the ligand. After the addition of a 0.2 ml of a 20 μM solution of ligand, the perfusate was collected into scintillation vials at 1 min. intervals and the dopamine released was quantified by scintillation counting. Peaks of radioactivity released above background were summed and the average basal release during that time was subtracted from the total. Release was expressed as a percentage of release obtained with an equal concentration of S(-) nicotine.

Each structure is given as a SMILES string.

By Ki is commonly meant a dissociation constant, usually derived from enzyme kinetics or from competition with a known ligand.

Turning to `CC1CCC(c2cccnc2)N1C` (racemic) [5^1 -methylnicotine], the Ki in test [1] was 6400 nM. Moreover, in test [2], the Emax at 20 µM came to 5%.
For `Cc1cncc(C2CCCN2C)c1` (racemic) [5-methylnicotine], in that order: 2 ± 0.8 nM and 30%.
For `CN1CCCC1c1cncc(F)c1` (racemic) [5-fluoronicotine], in that order: 61 ± 16 nM and 110%.
The corresponding values for `CN1CCCC1c1cncc(Br)c1` (racemic) [5-bromonicotine] are 44 ± 12 nM and 65%.
As for `CC1CC(c2cccnc2)N(C)C1` (racemic) [4^1 -methylnicotine], in test [1], the Ki is 91 ± 7 nM. Also, in test [2], the Emax at 20 µM was 40%.

(Values after patent US5242935A, “Method for treatment of neurodegenerative diseases” (R. J. Reynolds Tobacco Company, priority 1992, dated 1993).)
